Test system: conjunctiva (eosinophils, neutrophils, mast cell degranulation)
Conditions: conjunctiva examined two hours after ovalbumin
Method: 72 hours after the rats have been sensitized by injecting antiserum into the eyelids of the test animals, a fresh provocation was induced in them by intravenous administration of ovalbumin. Some of the experimental animals were pretreated by the administration of solution containing epinastine according to the invention into the conjunctival sac 15 minutes before the ovalbumin is administered. Two hours after the administration of ovalbumin the experimental animals were killed and the conjunctiva was investigated for its content of eosinophils and neutrophils and the mast cell granulation was determined.

[1] = epinastine solution into the conjunctival sac 15 minutes before i.v. ovalbumin, p<0.01

Structure (SMILES): NC1=NCC2c3ccccc3Cc3ccccc3N12 (stereo not drawn) [epinastine, 3-amino-9,13b-dihydro-1H-dibenz-[c,f]imidazol[1,5-a]azepine]
- content of eosinophils in conjunctiva (epinastine solution 0.05-0.5% into the conjunctival sac 15 minutes before i.v. ovalbumin): significantly lower
- content of lymphocytes in conjunctiva [1]: significantly lower
- inhibition of mast cell degranulation [1]: roughly 35%

Reference: patent US7429602B2, “Treating conjunctivitis by topically administering an epinastine solution to the conjunctiva” (Boehringer Ingelheim Pharma GmbH & Co. Kg, priority 1999, dated 2008)
